Laboratory results published in US20240368664A1, “LIVE YEAST BIOSENSORS AND METHODS OF USE THEREOF” (priority 2021, published 2024).
Several values for one entry are separate records, joined by “and”; a condition that tells them apart may be missing. Identical values can stand only once. No end group written: not given here.

Key:
[1] = Metal-binding peptide absorbance scan; format: physicochemical; conditions: for absorbance maxima of copper complexes: 1 mM copper, 1 mM peptide, 50 mM Tris/HCl, NaClO4 buffer
[2] = system: CaSte2 with protease CaBar1; conditions: CaSte2 + CaBar1 (yBB02); Hill function best-fit ± standard error
CaSte2 = conditions: for Hill Slope: CaSte2 (yTC384), no protease, Hill function best-fit ± standard error; for response of CaSte2 / EC50 compared to the native CaPep: alanine scan, system without CaBar1 (yTC384)
[3] = biological target: ScSte2 with protease ScBar1 (Saccharomyces cerevisiae, UniProt D6VTK4); format: cell-based
Sequence of ScSte2 with protease ScBar1 (D6VTK4 whole entry): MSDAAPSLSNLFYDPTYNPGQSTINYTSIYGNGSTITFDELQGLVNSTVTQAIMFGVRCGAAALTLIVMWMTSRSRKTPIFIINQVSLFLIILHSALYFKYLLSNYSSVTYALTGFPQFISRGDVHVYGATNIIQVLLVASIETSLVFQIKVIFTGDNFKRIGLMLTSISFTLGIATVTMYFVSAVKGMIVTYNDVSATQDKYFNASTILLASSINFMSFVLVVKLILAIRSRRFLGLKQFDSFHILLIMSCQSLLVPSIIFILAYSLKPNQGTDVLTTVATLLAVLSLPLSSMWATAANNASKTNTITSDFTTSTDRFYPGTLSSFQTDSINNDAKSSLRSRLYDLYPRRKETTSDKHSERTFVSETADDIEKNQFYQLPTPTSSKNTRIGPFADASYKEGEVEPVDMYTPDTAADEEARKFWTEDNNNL

ScSte2 = ScSte2 (Saccharomyces cerevisiae, UniProt D6VTK4); experiment: ScSte2 biosensor dose-response, ymTurquoise2 readout, no protease (incl. ScPep alanine scan, yTC391); format: cell-based; conditions: Hill function best-fit ± standard error
Sequence of ScSte2 (D6VTK4 whole entry): as above

[4] = biological target: T1, Candida albicans pheromone GPCR CaSte2 (Candida albicans); experiment: cell-based or functional assay
T1 sequence: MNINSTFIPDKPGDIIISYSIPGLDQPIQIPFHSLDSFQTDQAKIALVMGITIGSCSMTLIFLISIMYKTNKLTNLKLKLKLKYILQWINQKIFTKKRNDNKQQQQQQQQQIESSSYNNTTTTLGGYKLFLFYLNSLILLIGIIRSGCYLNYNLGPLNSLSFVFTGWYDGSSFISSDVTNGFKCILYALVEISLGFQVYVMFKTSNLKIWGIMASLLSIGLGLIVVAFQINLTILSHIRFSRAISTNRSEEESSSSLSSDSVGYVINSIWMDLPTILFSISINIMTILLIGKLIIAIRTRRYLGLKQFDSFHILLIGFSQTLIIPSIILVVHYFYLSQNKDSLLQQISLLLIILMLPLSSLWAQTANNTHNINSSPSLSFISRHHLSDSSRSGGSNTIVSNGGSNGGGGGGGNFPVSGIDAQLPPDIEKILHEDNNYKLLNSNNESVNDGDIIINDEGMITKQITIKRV

[5] = biological target: T2, Saccharomyces cerevisiae pheromone GPCR ScSte2 (Saccharomyces cerevisiae) (UniProt D6VTK4); experiment: cell-based or functional assay
T2 sequence: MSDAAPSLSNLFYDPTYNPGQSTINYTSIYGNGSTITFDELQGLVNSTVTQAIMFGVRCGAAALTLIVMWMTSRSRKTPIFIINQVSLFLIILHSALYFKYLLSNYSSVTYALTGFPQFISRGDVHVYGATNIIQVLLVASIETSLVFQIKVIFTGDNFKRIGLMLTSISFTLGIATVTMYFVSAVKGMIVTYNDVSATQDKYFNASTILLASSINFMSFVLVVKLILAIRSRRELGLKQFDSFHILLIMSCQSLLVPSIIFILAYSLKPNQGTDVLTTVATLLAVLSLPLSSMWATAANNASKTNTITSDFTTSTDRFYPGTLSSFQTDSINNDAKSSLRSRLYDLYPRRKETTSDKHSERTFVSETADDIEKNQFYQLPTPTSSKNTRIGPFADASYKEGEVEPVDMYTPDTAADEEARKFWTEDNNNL

Compound | Hill Slope [2] | Hill Slope (CaSte2) | Top [4] | further results
O.O.[Cl][Cu][Cl] [Copper, CuCl2×2H2O] |  |  |  | absorbance peak ([1]; copper alone in Tris/HCl buffer): 630 nm
AAH |  |  |  | absorbance maxima of copper complexes [1]: 520 nm
AFRLTNFGYFEPG [CaPep1A] | 1.1 ± 0.22 | 3.0 ± 0.4 |  | 
AHWLQLKPGQPMY [ScPep1A] |  |  |  | Bottom [3]: −3.1 ± 5.8 A.U.; Hill Slope [3]: 0.76 ± 0.06; LogEC50 [3]: −5.9 ± 0.1 M; Top [3]: 350 ± 10 A.U.; Hill Slope (ScSte2): 3.4 ± 0.8
C. albicans pheromone peptide (CaPep) |  |  | 460 A.U. and 420 A.U. | EC50, lycopene readout, strains preincubated, +CaBar1 [4]: 4000 nM; EC50, ymTurquoise2, biosensor with CaBar1 (pRPL18B) [4]: 90 nM; EC50, ymTurquoise2, biosensor without protease [4]: 7 nM; LogEC50 [4]: -7.2 log M
CaPep1A (peptide) |  |  | 460 A.U. and 410 A.U. | 
CaPep2A13A (peptide) |  |  | 790 A.U. and 680 A.U. | EC50, ymTurquoise2, strain with the protease CaBar1 [4]: 70 nM; EC50, ymTurquoise2, strain without the protease [4]: 50 nM; LogEC50 [4]: -7 log M and -6.5 log M
CaPep3A (peptide) |  |  | 460 A.U. | 
CaPep4A (peptide) |  |  | 460 A.U. and 410 A.U. | LogEC50 [4]: -6.5 log M and -6.1 log M
CaPep5A (peptide) |  |  | 15 A.U. and 13 A.U. | LogEC50 [4]: -5.2 log M and -4.9 log M
CaPep6A (peptide) |  |  | 570 A.U. and 450 A.U. | LogEC50 [4]: -6.2 log M and -5.9 log M
CaPep7A (peptide) |  |  | 34 A.U. and 17 A.U. | LogEC50 [4]: -5.5 log M and -5.6 log M
CaPep8A (peptide) |  |  | 640 A.U. and 460 A.U. | 
CaPep9A (peptide) |  |  | 700 A.U. and 480 A.U. | 
DAHK (UniProt P02768 25-28, looked up, fragment) |  |  |  | absorbance maxima of copper complexes [1]: 520 nm
GFALTNFGYFEPG [CaPep3A] | 0.74 ± 0.08 | 2.0 ± 0.1 |  | 
GFRATNFGYFEPG [CaPep4A] | 2.4 ± 0.4 | 1.3 ± 0.1 |  | 
GFRLANFGYFEPG [CaPep5A] |  | 2.7 ± 0.7 |  | response of CaSte2 (CaSte2): practically non-responsive
GFRLTAFGYFEPG [CaPep6A] | 1.7 ± 0.2 | 4.4 ± 0.4 |  | 
GFRLTNAGYFEPG [7A] | 2.2 ± 0.4 | 1.4 ± 0.1 |  | response of CaSte2 (CaSte2): practically non-responsive
GFRLTNFAYFEPG [CaPep8A] | 1.0 ± 0.1 | 1.3 ± 0.3 |  | 
GFRLTNFGAAEPG [9A10A] | 1.0 ± 0.1 | 0.99 ± 0.04 |  | EC50 compared to the native CaPep (CaSte2): more than two orders of magnitude higher EC50
GFRLTNFGAFEPG [CaPep9A] | 1.7 ± 0.2 | 1.9 ± 0.1 |  | 
GFRLTNFGYAEPG [CaPep10A] | 2.6 ± 0.13 | 2.8 ± 0.5 |  | EC50 compared to the native CaPep (CaSte2): more than two orders of magnitude higher EC50
GFRLTNFGYFAPG [CaPep11A] | 1.5 ± 0.2 |  |  | 
GFRLTNFGYFEAA [12A13A] | 1.8 ± 0.1 | 2.8 ± 0.1 |  | EC50 compared to the native CaPep (CaSte2): more than two orders of magnitude higher EC50
GFRLTNFGYFEAG [12A] | 1.1 ± 0.1 | 0.95 ± 0.04 |  | EC50 compared to the native CaPep (CaSte2): more than two orders of magnitude higher EC50
S. cerevisiae pheromone peptide (ScPep) |  |  |  | EC50 (mCherry/OD600) [5]: 2 nM; Top [5]: 380 A.U. and 390 A.U.
